Tests used:
[1] = system: U118MG (glioblastoma) xenograft tumors; assay: U118MG glioblastoma xenograft model; format: in vivo, SCID mice
Method: For the experiments, ten million cells (U118MG) that were grown in vitro were inoculated subcutaneously per mouse into the right flank of female SCID mice. Tumors were size matched at˜100 mm^3, and dosed intraperitoneally (IP) Q6Dx2 (1 dose given every 6 days for a total of 2 doses) as shown in FIG. 14A. Measurements of the length (L) and width (W) of the tumors were taken via electronic caliper and the volume was calculated according to the following equation: V=L×W^2/2.
For the experiment, U118MG human glioblastoma cells were grown in vitro, and were inoculated subcutaneously (10 million cells per mouse) into the right flank of female SCID mice. Tumors were size matched at ˜150 mm^3, antibodies and immunoconjugates were administered IP Q4Dx6 (one dose give every 4 days for a total of 6 doses) at 10 or 6 mg/kg, respectively. At Day 165 post sizematch when tumors had regrown to ˜450 mm^3, animals were retreated with huM25-vcMMAE-DAR4 IP Q4Dx3 (one dose given every 4 days for a total of 3 doses) at 6 mg/kg.
Four preparations of huM25-vcMMAE that differed in their relative DAR profile (E2, E2/E4, E4 or DAR4) were tested for efficacy in U118MG tumors. […]
The potency of anti-huLRRC15 ADCs as compared to current standards of care was assessed in xenograft model U118MG (glioblastoma), and patient-derived xenograft models CTG-0241 osteosarcoma) and CTG-1095 (osteosarcoma). […]

[2] = system: CTG-0241 (human osteosarcoma) patient-derived xenograft; assay: CTG-0241 patient-derived osteosarcoma xenograft model; format: in vivo, nu/nu mice
From the text: (§1) Female nu/nu mice were implanted unilaterally on the left flank region with CTG-0241 tumor fragments harvested from host animals, each implanted from a specific passage lot. When tumors reached approximately 250-350 mm^3, animals were matched by tumor volume into treatment and control groups and dosing initiated (Day 0).
In FIG. 18B, female nu/nu mice were implanted unilaterally on the left flank region with CTG-0241 tumor fragments harvested from host animals, each implanted from a specific passage lot. When tumors reached approximately 250-350 mm^3, animals were matched by tumor volume into treatment and control groups and dosing initiated (Day 0). Dosing with isotype mAb or ADCs was performed IP at 6 mg/kg on a Q4Dx6 (one dose given every 4 days for a total of 6 doses), while cisplatin was dosed IP Q7Dx3 (once every 7 days for a total of 3 doses) at 7.5 mg/kg, doxorubicin was dosed intravenously (IV) once daily at 1 mg/kg for 5 days, gemcitabine was dosed IP Q3Dx4 (every 3 days for a total of 4 doses) at 80 mg/kg, and ifosfamide was dosed IP QDx3 (one dose given every day for a total of 3 doses) at 120 mg/kg.

[3] = system: CTG-1095 (human osteosarcoma) patient-derived xenograft; assay: CTG-1095 patient-derived osteosarcoma xenograft model; format: in vivo, NSG mice
From the text: as §1, with “NSG” for “nu/nu”, “CTG-1095” for “CTG-0241”
In FIG. 18C, female NSG mice were implanted unilaterally on the left flank region with CTG-1095 tumor fragments harvested from host animals, each implanted from a specific passage lot. When tumors reached approximately 150-300 mm^3, animals were matched by tumor volume into treatment and control groups and dosing initiated (Day 0). Dosing with isotype mAb or ADCs was performed IP at 12 mg/kg Q4Dx6 (one dose given every 4 days for a total of 6 doses), while cisplatin was dosed intraperitoneally Q7Dx2 (once every 7 days for a total of 2 doses) at 7.5 mg/kg.
In FIG. 18D, female NSG mice were implanted unilaterally on the left flank region with CTG-1095 tumor fragments harvested from host animals, each implanted from a specific passage lot. When tumors reached approximately 200 mm^3, animals were matched by tumor volume into treatment and control groups and dosing initiated (Day 0). Dosing with isotype mAb or ADCs was performed IP at 6 mg/kg on a Q4Dx6 (one dose given every 4 days for a total of 6 doses), while gemcitabine was dosed IP Q3Dx4 (every 3 days for a total of 4 doses) at 80 mg/kg.

[4] = system: U118MG (glioblastoma) cells; assay: In vitro cell killing assay (Cell TiterGlo), U118MG; format: cell-based, human; conditions: 4 days, percent cell viability by Cell TiterGlo
Method: (§2) In the in vitro cell killing assays, cells are seeded at 500-3000 cells per well into 96-well plates with varying concentrations ([…]) of antibodies and ADCs. The cells are incubated for 4 days in culture and then the percent cell viability relative to untreated cells is determined using Cell TiterGlo™ which measures ATP content within the treated cells.
Preparation of the huM25-PBD-DAR2 ADC was accomplished according to the procedure described in Example 8.
FIG. 13E depicts the potent in vitro 4-day cell killing ability of anti-huLRRC15 ADC huM25-PBD-DAR2 as compared with the isotype control PBD DAR2 ADC in U118MG (glioblastoma) cells.

[5] = system: RPMI-7951 (melanoma) cells; assay: In vitro cell killing assay (Cell TiterGlo), RPMI-7951; format: cell-based, human; conditions: RPMI-7951, 4 days
Method: as §2

[6] = system: G292 clone A141B1 (osteosarcoma) cells; assay: In vitro cell killing assay (Cell TiterGlo), G292 clone A141B1; format: cell-based, human; conditions: G292 clone A141B1, 4 days
Method: as §2

[7] = system: EBC-1 (squamous NSCLC) cells; assay: In vitro cell killing assay (Cell TiterGlo), huLRRC15-negative EBC-1; format: cell-based, human; conditions: huLRRC15-negative EBC-1, 4 days
Method: as §2

[8] = Rat tolerability experiment; format: in vivo, Sprague Dawley wild type rats; conditions: single IV dose at MMAE equivalent levels, FIG. 16A
Method: The safety profiles of E2, E4 and E2/E4 preparations of huM25-vcMMAE ADCs were assessed in a rat tolerability experiment (FIGS. 16A, 16B). For the assay, Sprague Dawley wild type rats were dosed with a single IV dose at MMAE equivalent levels of each antibody drug conjugate. […] Double the protein antibody dose was delivered with equal amounts of MMAE, and improved survival for E2 was seen over E4. Fewer deaths occurred in the animals dosed with E2 than E4 ADCs, and the deaths that did occur happened later on Day 8. Broad drug distribution DAR4 has an MTD of 20 mg/kg.

[9] = system: human BM-MSC (Lonza) mesenchymal stem cells; assay: In vitro cell killing, human BM-MSC treated with TGFβ; format: cell-based; conditions: 10 ng/mL TGFβ, same doses
[10] = gemcitabine alone, 80 mg/kg IP Q3Dx4, FIG. 18D
[11] = ADC alone, 6 mg/kg IP Q4Dx6, FIG. 18D

With `Cn1nnc2c(C(N)=O)ncn2c1=O` [temozolomide, reference compound] as the molecule, how does the TGImax ([1]; 20 mg/kg orally daily for first 5 days of a 7-day cycle, two cycles, FIG. 18A) read?
Its TGImax is 67%.

With `N.N.[Cl][Pt][Cl]` [cisplatin, reference compound] as the molecule, how does the TGImax ([2]; 7.5 mg/kg IP Q7Dx3, FIG. 18B) read?
Its TGImax is 44%.

What about the TGImax ([3]; 7.5 mg/kg IP Q7Dx2, FIG. 18C) of the same molecule?
The TGImax was 70%.

For `Nc1ccn([C@@H]2O[C@H](CO)[C@@H](O)C2(F)F)c(=O)n1` [gemcitabine, reference compound], which TGImax ([2]; 80 mg/kg IP Q3Dx4, FIG. 18B) is on record?
The TGImax was 64%.

And the TGD [3, 10]?
Its TGD is 241%.

And the TGImax [3, 10]?
Its TGImax is 84%.

Which TGImax ([2]; 1 mg/kg IV once daily for 5 days, FIG. 18B) does the source give for `COc1cccc2c1C(=O)c1c(O)c3c(c(O)c1C2=O)C[C@@](O)(C(=O)CO)C[C@@H]3O[C@H]1C[C@H](N)[C@H](O)[C@H](C)O1` [doxorubicin] here?
The TGImax was 27%.

Which TGImax ([2]; 120 mg/kg IP QDx3, FIG. 18B) does the source give for `O=P1(NCCCl)OCCCN1CCCl` (stereo not shown) [ifosfamide] here?
The TGImax was 10%.

Which “in vitro cell killing compared with isotype ADC” value [4] does the source give for “huM25-vcMMAE-E2: huM25-vcMMAE ADC preparation enriched in DAR2 by hydrophobic interaction chromatography” here?
The value was “superior to that seen with non-targeting isotype-vcMMAE ADCs”.

And the “in vitro cell killing compared with isotype ADC” value [5]?
The value was “superior to that seen with non-targeting isotype-vcMMAE ADCs”.

And the “in vitro cell killing compared with isotype ADC” value [6]?
The value was “superior to that seen with non-targeting isotype-vcMMAE ADCs”.

What about the “in vitro cell killing” value [7] of the same molecule?
Its value is “minimal cancer cell killing”.

What about the “maximum tumor growth inhibition (TGImax)” value ([1]; MMAE-equivalent doses IP every seven days for three doses, FIG. 17) of the same molecule?
The value was no less than 84%.

And the TGImax ([2]; 6 mg/kg IP Q4Dx6, FIG. 14B/18B)?
Its TGImax is 91%.

And the TGImax ([3]; 12 mg/kg IP Q4Dx6, FIG. 14C/18C)?
Its TGImax is 87%.

What about the TGD [3, 11] of the same molecule?
Its TGD is 193%.

And the TGImax [3, 11]?
Its TGImax is 75%.

What about the “death, percentage of animals” value [8] of the same molecule?
Its value is 25%.

B1: huAD208.4.1-PBD-DAR2: anti-LRRC15 PBD ADC of huAD208.4.1, cross-reactive to human and mouse LRRC15 (conjugate)
VH: EVQLVQSGAEVKKPGSSVKVSCKASGFTFTDYYIHWVKQAPGQGLEWIGLVYPYIGGTNYNQKFKGKATLTVDTSTTTAYMEMSSLRSEDTAVYYCARGDNKYDAMDYWGQGTTVTVSS
VL: DIVLTQSPDSLAVSLGERATINCRASQSVSTSSYSYMHWYQQKPGQPPKLLIKYASSLESGVPDRFSGSGSGTDFTLTISSLQAEDVAVYYCEQSWEIRTFGGGTKVEIK
With B1 as the molecule, how does the “in vitro cell killing effect compared with isotype-PBD-DAR2” value [9] read?
Its value is “higher cell killing effect than isotype-PBD-DAR2”.
